Read-outs that look alike come from different tables or passages of the source. Starred links: 1 amine or outer side, 2 acyl side, 3 side chain; linkers in the order of their positions; H or OH if unused. Positions of bridges follow the written chain, without caps; N, C: chain ends. Non-standard residues stand in square brackets, D forms with d. Residues, ends and D or L forms follow the SMILES beside them. *: point of attachment. DOTA = O=C(O)CN1CCN(CC(=O)O)CCN(CC(=O)*)CCN(CC(=O)O)CC1; Trp(5-OH) = N[C@@H](Cc1c[nH]c2ccc(O)cc12)C(=O)O; NMePhe(4-F) = CN[C@@H](Cc1ccc(F)cc1)C(=O)O; NMehPhe = CN[C@@H](CCc1ccccc1)C(=O)O; Aad = N[C@@H](CCCC(=O)O)C(=O)O; Gly(cPr) = N[C@H](C(=O)O)C1CC1; NMeK = CN[C@@H](CCCCN)C(=O)O; NMeDap = CN[C@@H](CN)C(=O)O; hLys = NCCCCC[C@H](N)C(=O)O; Orn = NCCC[C@H](N)C(=O)O; X6 = O=C(C[*:1])[*:2]
Tests used:
Type in all cases: binding
human HER2 (23-652) [1] = biological target: T1, human HER2 (23-652) (Homo sapiens, UniProt P04626); assay: TR-FRET competition assay for peptide potency, human HER2; design: towards human HER2 (23-652) and mouse HER2 (23-653); made in house; host or cells: mammalian cells
Protocol: (§1) Both proteins containing a His-, Avi-tag and biotin in Nterminus, were expressed in mammalian cells and produced in house. […] Standard assay conditions consist of 20 uL total volume in white 384-well plates (Greiner), in 10 mM HEPES buffer containing 150 mM NaCl, 3 mM EDTA, 0.05% Tween20 and 1% final DMSO. […] The ratiometric FRET assay readout is calculated from the ratio of the raw data of the two distinct fluorescence signals measured in time resolved mode (fluorescence 665 nm/fluorescence 620 nm). IC50 values were calculated with the standard Novartis in-house assay data analysis software (Helios software application, Novartis Institutes for BioMedical Research, unpublished) using the methods described in Comput. Methods. Programs. Biomed. 2006, 82, 31-37 (regression algorithms for nonlinear dose-response curve fitting).

mouse HER2 (23-653) = mouse HER2 (23-653) (Mus musculus, UniProt P70424); assay: TR-FRET competition assay for peptide potency, mouse HER2; design: mouse HER2 (23-653) using a Cy5 labeled peptide as a probe; made in house; host or cells: mammalian cells
Protocol: as §1

human HER2 (23-652) [2] = biological target: T1, human HER2 (23-652); assay: Surface plasmon resonance (SPR) for assessment of peptide affinity, human HER2; design: towards human HER2 (23-652) and mouse HER2 (23-653); made in house
Protocol: Each protein was immobilized either onto a SA sensorchip (Cytiva, BR-1005-31) or CM5 sensorchip (Cytiva, BR-1005-30) to a density of 800-2000 RU. […] For the assay setup the same conditions (flow rate, running buffer, peptide dilution) as described above were used. In a first step the Anti Fc IgG Ab (from Human Antibody Capture Kit, Ref. 29234600, Cytiva) was diluted into acetate pH 5.0 at 25 ug/mL and immobilized at a flow rate of 10 uL/min over 360 s to reach a density around 6000 RU. […] The peptides were tested with an association time of 280 s followed by a dissociation time of 3000 s at a flow rate of 30 uL/min. The regeneration was done using 3 M magnesium chloride regeneration solution as obtained with a contact time of 30 s at a flow rate of 10 uL/min. Curve fitting was performed using the BiacoreTM 8K evaluation software.

[3] = TR-FRET competition with Cy5 labeled peptide probe, 0.1 nM human HER2, 24 h incubation, read-out: huHER2 TR-FRET IC50
[4] = SPR, human HER2 extracellular domain, 25° C., 1:1 binding model; read-out: huHER2-SPR-ONC KD
[5] = TR-FRET competition with Cy5 labeled peptide probe, 0.1 nM mouse HER2, 24 h incubation, read-out: moHER2 TR-FRET IC50

| Structure (SMILES) | IC50 (human HER2 (23-652) [1]; [3]) [nM] | Kd (human HER2 (23-652) [2]; [4]) [nM] | IC50 (mouse HER2 (23-653); [5]) [nM] | also measured |
| --- | --- | --- | --- | --- |
| CC(=O)NCCCC[C@H]1C(=O)N[C@@H](Cc2c[nH]c3ccc(O)cc23)C(=O)N[C@@H](Cc2c[nH]c3ccccc23)C(=O)N[C@@H]([C@H](C)O)C(=O)N(C)[C@H](C(=O)N(C)[C@@H](Cc2ccc(F)cc2)C(=O)N[C@@H](CCCCNC(=O)CN2CCN(CC(=O)O)CCN(CC(=O)O)CCN(CC(=O)O)CC2)C(N)=O)CNC(=O)CCC[C@H](NC(C)=O)C(=O)N[C@@H](Cc2ccc(O)cc2)C(=O)N[C@@H](CO)C(=O)N(C)[C@@H](CCc2ccccc2)C(=O)N1C [Example C6] | 0.5 | 0.3 |  | IC50 (human HER2 (23-652) [1]; value in parentheses (**): recalculated after further repetition, read-out: huHER2 TR-FRET IC50, recalculated value achieved after further repetition): 0.3 nM; IC50 (mouse HER2 (23-653); value in parentheses (**): recalculated after further repetition, read-out: moHER2 TR-FRET IC50, recalculated value achieved after further repetition): 1 nM |
| CC(=O)NCCCC[C@H]1C(=O)N[C@@H](Cc2c[nH]c3ccc(O)cc23)C(=O)N[C@@H](Cc2c[nH]c3ccccc23)C(=O)N[C@@H](C2CC2)C(=O)N(C)[C@H](C(=O)N(C)[C@@H](Cc2ccc(F)cc2)C(=O)N[C@@H](CCCNC(=O)CN2CCN(CC(=O)O)CCN(CC(=O)O)CCN(CC(=O)O)CC2)C(N)=O)CNC(=O)CCC[C@H](NC(C)=O)C(=O)N[C@@H](Cc2ccc(O)cc2)C(=O)N[C@@H](CO)C(=O)N(C)[C@@H](CCc2ccccc2)C(=O)N1C [Example C9] (Ac-[Aad]YS[NMehPhe][NMeK](Ac)[Trp(5-OH)]W[Gly(cPr)][NMeDap][NMePhe(4-F)][Orn](DOTA)-NH2; lactam 1-9) | < 0.1 | < 0.1 | 0.2 |  |
| CC(=O)NCCCC[C@H]1C(=O)N[C@@H](Cc2c[nH]c3ccc(O)cc23)C(=O)N[C@@H](Cc2c[nH]c3ccccc23)C(=O)N[C@@H](C2CC2)C(=O)N(C)[C@H](C(=O)N(C)[C@@H](Cc2ccc(F)cc2)C(=O)N[C@@H](CCCCNC(=O)CN2CCN(CC(=O)O)CCN(CC(=O)O)CCN(CC(=O)O)CC2)C(N)=O)CNC(=O)CCC[C@H](NC(=O)CC(=O)O)C(=O)N[C@@H](Cc2ccc(O)cc2)C(=O)N[C@@H](CO)C(=O)N(C)[C@@H](CCc2ccccc2)C(=O)N1C [Example C10] | < 0.1 | < 0.1 | < 0.1 |  |
| CC(=O)NCCCC[C@H]1C(=O)N[C@@H](Cc2c[nH]c3ccc(O)cc23)C(=O)N[C@@H](Cc2c[nH]c3ccccc23)C(=O)N[C@@H](C2CC2)C(=O)N(C)[C@H](C(=O)N(C)[C@@H](Cc2ccc(F)cc2)C(=O)N[C@@H](CCCCNC(=O)CN2CCN(CC(=O)O)CCN(CC(=O)O)CCN(CC(=O)O)CC2)C(=O)O)CNC(=O)CCC[C@H](NC(C)=O)C(=O)N[C@@H](Cc2ccc(O)cc2)C(=O)N[C@@H](CO)C(=O)N(C)[C@@H](CCc2ccccc2)C(=O)N1C [Example C12] | 0.3 | 0.4 | 1 |  |
| CC(=O)NCCCC[C@H]1C(=O)N[C@@H](Cc2c[nH]c3ccc(O)cc23)C(=O)N[C@@H](Cc2c[nH]c3ccccc23)C(=O)N[C@@H](C2CC2)C(=O)N(C)[C@H](C(=O)N(C)[C@@H](Cc2ccc(F)cc2)C(=O)N[C@@H](CCCCNC(=O)CN2CCN(CC(=O)O)CCN(CC(=O)O)CCN(CC(=O)O)CC2)C(N)=O)CNC(=O)CCC[C@H](NC(=O)Cc2nnn[nH]2)C(=O)N[C@@H](Cc2ccc(O)cc2)C(=O)N[C@@H](CO)C(=O)N(C)[C@@H](CCc2ccccc2)C(=O)N1C [Example C13] |  |  |  | IC50 (human HER2 (23-652) [1]; read-out: huHER2 TR-FRET IC50, TR-FRET competition with Cy5 labeled peptide probe, 0.1 nM human HER2, 24 h incubation): < 0.1 nM; IC50 (mouse HER2 (23-653); read-out: moHER2 TR-FRET IC50, TR-FRET competition with Cy5 labeled peptide probe, 0.1 nM mouse HER2, 24 h incubation): 0.1 nM; Kd (human HER2 (23-652) [2]; read-out: huHER2-SPR-ONC KD; SPR, human HER2 extracellular domain, 25° C., 1:1 binding model): < 0.1 nM |
| CC(=O)NCCCC[C@H]1C(=O)N[C@@H](Cc2c[nH]c3ccc(O)cc23)C(=O)N[C@@H](Cc2c[nH]c3ccccc23)C(=O)N[C@@H](C2CC2)C(=O)N(C)[C@H](C(=O)N(C)[C@@H](Cc2ccc(F)cc2)C(=O)N[C@@H](CCCCNC(=O)CN2CCN(CC(=O)O)CCN(CC(=O)O)CCN(CC(=O)O)CC2)C(N)=O)CNC(=O)COC[C@H](NC(C)=O)C(=O)N[C@@H](Cc2ccc(O)cc2)C(=O)N[C@@H](CO)C(=O)N(C)[C@@H](CCc2ccccc2)C(=O)N1C [Example C16] (Ac-SYS[NMehPhe][NMeK](Ac)[Trp(5-OH)]W[Gly(cPr)][NMeDap][NMePhe(4-F)]K(DOTA)-NH2; linker 1-9 via X6) | < 0.1 | < 0.1 | 0.1 |  |
| CC(=O)NCCCC[C@H]1C(=O)N[C@@H](Cc2c[nH]c3ccc(O)cc23)C(=O)N[C@@H](Cc2c[nH]c3ccccc23)C(=O)N[C@@H](C2CC2)C(=O)N(C)[C@H](C(=O)N(C)[C@@H](Cc2ccc(F)cc2)C(=O)N[C@@H](CCCCCNC(=O)CN2CCN(CC(=O)O)CCN(CC(=O)O)CCN(CC(=O)O)CC2)C(N)=O)CNC(=O)CCC[C@H](NC(C)=O)C(=O)N[C@@H](Cc2ccc(O)cc2)C(=O)N[C@@H](CO)C(=O)N(C)[C@@H](CCc2ccccc2)C(=O)N1C [Example C17] (Ac-[Aad]YS[NMehPhe][NMeK](Ac)[Trp(5-OH)]W[Gly(cPr)][NMeDap][NMePhe(4-F)][hLys](DOTA)-NH2; lactam 1-9) | < 0.1 | < 0.1 | 0.1 |  |
| CC(=O)NCCCC[C@H]1C(=O)N[C@@H](Cc2c[nH]c3ccc(O)cc23)C(=O)N[C@@H](Cc2c[nH]c3ccccc23)C(=O)N[C@@H](C2CC2)C(=O)N(C)[C@H](C(=O)N(C)[C@@H](Cc2ccc(F)cc2)C(=O)N[C@@H](CCCCNC(=O)CN2CCN(CC(=O)O)CCN(CC(=O)O)CCN(CC(=O)O)CC2)C(N)=O)CNC(=O)CCC[C@H](N)C(=O)N[C@@H](Cc2ccc(O)cc2)C(=O)N[C@@H](CO)C(=O)N(C)[C@@H](CCc2ccccc2)C(=O)N1C [Example C18] | 0.1 | 0.1 | 0.6 |  |
| CC(=O)NCCCC[C@H]1C(=O)N[C@@H](Cc2c[nH]c3ccc(O)cc23)C(=O)N[C@H](Cc2c[nH]c3ccccc23)C(=O)N[C@@H](C2CC2)C(=O)N(C)[C@H](C(=O)N(C)[C@@H](Cc2ccc(F)cc2)C(=O)N[C@@H](CCCCNC(=O)CN2CCN(CC(=O)O)CCN(CC(=O)O)CCN(CC(=O)O)CC2)C(N)=O)CNC(=O)CCC[C@H](NC(C)=O)C(=O)N[C@@H](Cc2ccc(O)cc2)C(=O)N[C@@H](CO)C(=O)N(C)[C@@H](CCc2ccccc2)C(=O)N1C [Example C31] | 4840 | > 6000 | > 10000 |  |
| COCCOCCOCCOCCOCCOCCOCCOCCOCCOCCOCCOCCC(=O)N[C@H]1CCCC(=O)NC[C@@H](C(=O)N(C)[C@@H](Cc2ccc(F)cc2)C(=O)N[C@@H](CCCCNC(=O)c2ccc(F)nc2)C(N)=O)N(C)C(=O)[C@H](C2CC2)NC(=O)[C@H](Cc2c[nH]c3ccccc23)NC(=O)[C@H](Cc2c[nH]c3ccc(O)cc23)NC(=O)[C@H](CCCCNC(C)=O)N(C)C(=O)[C@H](CCc2ccccc2)N(C)C(=O)[C@H](CO)NC(=O)[C@H](Cc2ccc(O)cc2)NC1=O [Example F3] |  | < 0.1 | 0.3 | IC50 (human HER2 (23-652) [1]; read-out: huHER2 TR-FRET IC50): < 0.1 nM |
| CCCCCCCCCCCC(CCCCCCCCCCC(=O)O)(C(=O)O)C(=O)NCCOCCOCCOCCOCCOCCOCCOCCOCCOCCOCCOCCOCCOCCOCCOCCOCCOCCOCCOCCOCCOCCOCCOCCOCCC(=O)N[C@H]1CCCC(=O)NC[C@@H](C(=O)N(C)[C@@H](Cc2ccc(F)cc2)C(=O)N[C@@H](CCCCNC(=O)CN2CCN(CC(=O)O)CCN(CC(=O)O)CCN(CC(=O)O)CC2)C(N)=O)N(C)C(=O)[C@H](C2CC2)NC(=O)[C@H](Cc2c[nH]c3ccccc23)NC(=O)[C@H](Cc2c[nH]c3ccc(O)cc23)NC(=O)[C@H](CCCCNC(C)=O)N(C)C(=O)[C@H](CCc2ccccc2)N(C)C(=O)[C@H](CO)NC(=O)[C@H](Cc2ccc(O)cc2)NC1=O (stereo partly shown) [Example G1] | 1 | 0.7 | 3.8 |  |
